Measured values reported in US20220048873A1, “PESTICIDALLY ACTIVE C[…] AMIDE DERIVATIVES” (SYNGENTA CROP PROTECTION AG, priority 2018, published 2022).

How the values were obtained:
Assay type in all cases: in vivo
[1] = system: Euschistus heros (Neotropical Brown Stink Bug); assay: Euschistus heros feeding/contact activity on sprayed soybean leaves; details: 120 h, application rate of 200 ppm, N2 nymphs, 5 days after infestation
Protocol: Soybean leaves on agar in 24-well microtiter plates were sprayed with aqueous test solutions prepared from 10,000 ppm DMSO stock solutions. After drying the leaves were infested with N2 nymphs. The samples were assessed for mortality 5 days after infestation.

[2] = system: Plutella xylostella (Diamond Back Moth); assay: Plutella xylostella feeding/contact activity on treated artificial diet; details: 192 h, application rate of 200 ppm, eggs, 8 days after infestation
Protocol: 24-well microtiter plates with artificial diet were treated with aqueous test solutions prepared from 10,000 ppm DMSO stock solutions by pipetting. After drying, Plutella eggs were pipetted through a plastic stencil onto a gel blotting paper and the plate was closed with it. The samples were assessed for mortality 8 days after infestation.

[3] = system: Spodoptera littoralis (Egyptian Cotton Leaf Worm); assay: Spodoptera littoralis control on sprayed cotton leaf discs; details: foliar, 72 h, application rate of 200 ppm, L1 larvae, 3 days after infestation, read-out: control (at least one of mortality, anti-feedant effect, growth inhibition)
Protocol: Cotton leaf discs were placed onto agar in 24-well microtiter plates and sprayed with aqueous test solutions prepared from 10′000 ppm DMSO stock solutions. After drying the leaf discs were infested with five L1 larvae. The samples were assessed for mortality, anti-feeding effect, and growth inhibition in comparison to untreated samples 3 days after infestation. Control of Spodoptera littoralis by a test sample is given when at least one of the categories mortality, anti-feedant effect, and growth inhibition is higher than the untreated sample.

CCOC(=O)OCN(CC1(C#N)CC1)C(=O)c1ccc(C2=NO[C@@](c3cc(Cl)c(F)c(Cl)c3)(C(F)(F)F)C2)cc1C [A2, [(1-cyanocyclopropyl)methyl-[4-[(5S)-5-(3,5-dichloro-4-fluoro-phenyl)-5-(trifluoromethyl)-4H-isoxazol-3-yl]-2-methyl-benzoyl]amino]methyl ethyl carbonate]
≥ 80%: mortality at 200 ppm [1] | mortality at 200 ppm [2] | percent control (mortality, anti-feedant effect or growth inhibition) at 200 ppm [3]

COC(=O)OCN(CC1(C#N)CC1)C(=O)c1ccc(C2=NO[C@@](c3cc(Cl)c(F)c(Cl)c3)(C(F)(F)F)C2)cc1C [A1, [(1-cyanocyclopropyl)methyl-[4-[(5S)-5-(3,5-dichloro-4-fluoro-phenyl)-5-(trifluoromethyl)-4H-isoxazol-3-yl]-2-methyl-benzoyl]amino]methyl Methyl Carbonate]
≥ 80%: mortality at 200 ppm [1] | mortality at 200 ppm [2] | percent control (mortality, anti-feedant effect or growth inhibition) at 200 ppm [3]
